Source: publication PMC9573696, “Experimental Examination of Solubility and Lipophilicity as Pharmaceutically Relevant Points of Novel Bioactive Hybrid Compounds” (Molecules, 2022)
Values after ≈ are worked out from the molar mass of the structure shown.

How the values were obtained:
[1] = Equilibrium (thermodynamic) solubility, shake-flask method; type: physicochemical; settings: for Solubility S × 10^3 / Solubility x × 10^3 / Solubility x × 10^5 / Solubility S × 10^4 / Solubility x × 10^6: amorphous state; for Solubility S × 10^4 / Solubility x × 10^6: Buffer pH 7.4
From the text: The experimental solubility values of hybrids in the selected solvents within the temperature range of 293.15–313.15 K expressed in molarity are summarized in Table 2. The comparative analysis of the reference values of the solubility of compounds I–III at the standard temperature of 298.15 K is given as a histogram in Figure 3.
Shake-flask method as “gold standard” was used for determination thermodynamic solubility synthesized compounds in buffer solutions (pH 2.0 and 7.4) and 1-octanol in the temperature range of 293.15–313.15 K with a step of 5 degrees at atmospheric pressure. Excessive amounts of compound were added to glass vials c 12 mL of selected solvent. The heterogeneous system is closed with a lid and vigorously stirred at the selected temperature in an air thermostat with a stirring device until the solubility equilibrium has been reached. The time required for establishing a constant value of the solution concentration was determined from the solubility kinetic dependences and averaged 2 days. The equilibrated solutions were first survived to aim sedimentation of solid phase during 10 h, then centrifuged at 20,000 rpm for 30 min at specific temperatures, and then quickly filtered using a syringe equipped with a hydrophilic filter Millex-GV 0.22 µm (Ireland). Concentration of saturated solution was measured using spectrophotometer Cary-50 (Varian, USA) with an accuracy of 2–4%. The absorbances of compounds studied were measured at wavelengths 332 and 334 nm in buffer solutions and 1-octanol, respectively. If necessary, an aliquot was diluted with an appropriate solvent. The final pH of the saturated buffers was monitored. The solubility of compounds in each solvent was determined by repeating the procedure three times.
Mole fraction concentration was calculated from solubility value S expressed in mol∙L^−1 using Equation (10):(10) x=M2S/S(M2−M1)+1000ρ, where M1 and M2 are the molar masses of solute and solvent, respectively, and ρ (g∙cm^−3) is the density of the pure solvents. The mole fraction solubilities for buffer solutions were calculated taking into account the buffer compositions. The used values of densities are given in Table S6 in Supplementary Material.

[2] = test system: C. parapsilosis ATCC 22019; assay: In vitro antifungal activity, microbroth dilution (MIC); type: cell-based
Experimental: (§1) The in vitro antifungal screening results of synthesized compounds was evaluated against three fungal strains: C. parapsilosis ATCC 22019, C. utilis 84, and C. glabrata 61L are summarized in Table 1.
(§2) The in vitro antifungal activity of the target compounds was measured by means of the minimal inhibitory concentrations (MIC) with fluconazole as the control drug. Procedure was carried out by the microbroth dilution method in 96-well plates according to the recommendations of the Clinical and Laboratory Standards Institute. The detailed information was reported previously. The investigated pathogenic species included C. parapsilosis ATCC 22019, C. utilis 84 and C. glabrata 61. The sensitivity was evaluated visually, after the incubation at 35 °C for 24 h and the value was compared with the growth density in the reference culture without the sample. Each test was conducted in triplicate.

C. glabrata 61L = assay: as above; type: cell-based
Experimental: as §1, §2

C. utilis 84 = assay: as above; type: cell-based; settings: Williopsis jadinii, 84, 24 h
Experimental: as §1, §2

[3] = Thermodynamic functions of transfer 1-octanol/buffer pH 7.4; type: physicochemical; settings: 298.15 K
Experimental: The temperature variation of the partition coefficient provides enthalpic and entropic contributions to the free energy of transfer. The thermodynamic transfer functions for hybrids I–III in the 1-octanol/buffer pH 7.4 system were calculated by Equations (12)–(16) and are summarized in Table 6. The standard Gibbs energy values for all the compounds are negative. Therefore, the transfer from the aqueous medium to the organic phase within the studied temperature range is thermodynamically favourable and spontaneous. The standard transfer enthalpies of all the studied compounds are positive, which means the process is endothermic. Energy is consumed during the transfer to overcome the hydrophobic effects in water (destruction of the molecule solvate shell structure), destruction of the solvent–solute interactions in the aqueous medium and creation of a cavity in the organic phase where the solute molecules can enter.
The standard change in Gibbs free energy of transfer (∆trG^o) from the buffer to the organic phase was calculated by Equation (14):∆trG^o = −RTlnP*o/b(14)
The standard change entropy of transfer (∆trS^o) is determined as follows:∆trS^o = (∆trH^o − ∆trG^o)/T(15)

[4] = Apparent thermodynamic functions of dissolution (van't Hoff); type: physicochemical; settings: Thm = 302.98 K
From the text: The dissolution of the new hybrids was characterized based on apparent thermodynamic parameters obtained from temperature dependences of solubility of the studied compounds in the selected solvents (Figure 6). […] The van’t Hoff enthalpy of dissolution can be expressed as the inclination of a tangent to a solubility curve plotted as lnx vs. (1/T − 1/Thm) by Equation (6): (6) ΔHsolo=−R(∂lnx/∂(1/T−1/Thm))=−R⋅slope where R = 8.314 J⋅K^−1·mol^−1 is the universal gas constant. Thm = 302.98 K denotes the mean harmonic temperature, which was calculated by Equation (7):(7) Thm=n/∑i=1n1/Ti where n represented the number of experimental temperatures. The apparent standard Gibbs energy was evaluated by Equation (8):(8) ΔGsolo=−RThm×intersept
The apparent standard solution entropies were obtained from the well-known relationship:(9) ΔSsolo=ΔHsolo−ΔGsolo/Thm
The calculated apparent thermodynamic solubility functions of dissolution (Gibbs energy, enthalpy, and entropy) at standard temperature 298.15 K for hybrid compounds were collected in Table 4.

For `Cc1ccc(-n2c(=S)sc3c(=O)n(CCCN4CCN(CC(O)(Cn5cncn5)c5ccc(F)cc5F)CC4)cnc32)cc1` (stereo not shown) [I, 6-[3-[4-[2-(2,4-difluorophenyl)-2-hydroxy-3-(1H-1,2,4-triazol-1-yl)propyl]-1-piperazinyl]propyl]-2,3-dihydro-3-(4-methylphenyl)-2-thioxo-thiazolo[4,5-d]pyrimidin-7(6H)-one], the “Solubility S × 10^3” value ([1]; 1-Octanol, 293.15 K) was 7.0781 mol∙L^−1 (printed as S × 10^3), the “Solubility x × 10^3” value ([1]; 1-Octanol, 293.15 K) was 1.1199 mol. frac. (printed as x × 10^ and the “Solubility S × 10^3” value ([1]; 1-Octanol, 298.15 K) was 7.5389 mol∙L^−1 (printed as S × 10^3). The “Solubility x × 10^3” value ([1]; 1-Octanol, 298.15 K) was 1.1981 mol. frac. (printed as x × 10^, the “Solubility S × 10^3” value ([1]; 1-Octanol, 303.15 K) was 8.0826 mol∙L^−1 (printed as S × 10^3) and the “Solubility x × 10^3” value ([1]; 1-Octanol, 303.15 K) was 1.2903 mol. frac. (printed as x × 10^. For the same molecule, the “Solubility S × 10^3” value ([1]; 1-Octanol, 308.15 K) was 8.6264 mol∙L^−1 (printed as S × 10^3), the “Solubility x × 10^3” value ([1]; 1-Octanol, 308.15 K) was 1.3835 mol. frac. (printed as x × 10^ and the “Solubility S × 10^3” value ([1]; 1-Octanol, 313.15 K) was 9.2070 mol∙L^−1 (printed as S × 10^3). For the same molecule, the “Solubility x × 10^3” value ([1]; 1-Octanol, 313.15 K) was 1.4834 mol. frac. (printed as x × 10^, the solubility at 2 days ([1]; 25 °C, organic solvent or mixture, thermodynamic from solid, 1-octanol, text values match 298.15 K, read-out: Solubility S in the alcohol (1-octanol)) was 7.54 mM (≈ 4820 µg/mL) and the “Solubility S × 10^3” value ([1]; Buffer pH 2.0, 293.15 K) was 1.8307 mol∙L^−1 (printed as S × 10^3). The “Solubility x × 10^5” value ([1]; Buffer pH 2.0, 293.15 K) was 3.3040 mol. frac. (printed as x × 10^, the “Solubility S × 10^3” value ([1]; Buffer pH 2.0, 298.15 K) was 1.9773 mol∙L^−1 (printed as S × 10^3) and the “Solubility x × 10^5” value ([1]; Buffer pH 2.0, 298.15 K) was 3.5732 mol. frac. (printed as x × 10^. The “Solubility S × 10^3” value ([1]; Buffer pH 2.0, 303.15 K) was 2.1311 mol∙L^−1 (printed as S × 10^3), the “Solubility x × 10^5” value ([1]; Buffer pH 2.0, 303.15 K) was 3.8570 mol. frac. (printed as x × 10^ and the “Solubility S × 10^3” value ([1]; Buffer pH 2.0, 308.15 K) was 2.3027 mol∙L^−1 (printed as S × 10^3). The “Solubility x × 10^5” value ([1]; Buffer pH 2.0, 308.15 K) was 4.1749 mol. frac. (printed as x × 10^, the “Solubility S × 10^3” value ([1]; Buffer pH 2.0, 313.15 K) was 2.4851 mol∙L^−1 (printed as S × 10^3) and the “Solubility x × 10^5” value ([1]; Buffer pH 2.0, 313.15 K) was 4.5144 mol. frac. (printed as x × 10^. The “Solubility S × 10^4” value ([1]; 293.15 K) was 1.1295 mol∙L^−1 (printed as S × 10^4), the “Solubility x × 10^6” value ([1]; 293.15 K) was 2.0541 mol. frac. (printed as x × 10^ and the “Solubility S × 10^4” value ([1]; 298.15 K) was 1.2441 mol∙L^−1 (printed as S × 10^4). The “Solubility x × 10^6” value ([1]; 298.15 K) was 2.2653 mol. frac. (printed as x × 10^, the “Solubility S × 10^4” value ([1]; 303.15 K) was 1.3510 mol∙L^−1 (printed as S × 10^4) and the “Solubility x × 10^6” value ([1]; 303.15 K) was 2.4636 mol. frac. (printed as x × 10^. For the same molecule, the “Solubility S × 10^4” value ([1]; 308.15 K) was 1.4682 mol∙L^−1 (printed as S × 10^4), the “Solubility x × 10^6” value ([1]; 308.15 K) was 2.6820 mol. frac. (printed as x × 10^ and the “Solubility S × 10^4” value ([1]; 313.15 K) was 1.5920 mol∙L^−1 (printed as S × 10^4). For the same molecule, the “Solubility x × 10^6” value ([1]; 313.15 K) was 2.9135 mol. frac. (printed as x × 10^, the advantage over fluconazole ([2]; C. parapsilosis ATCC 22019, MIC ratio) was 4 fold and the MIC ([2]; Lodderomyces parapsilosis, ATCC22019, 24 h) was 0.5 µg/mL (≈ 0.783 µM). For the same molecule, the “MIC relative to the reference value (fluconazole)” value (C. glabrata 61L; C. glabrata 61L) was “four times less”, the MIC (C. glabrata 61L; Nakaseomyces glabratus, 61L, 24 h) was 2 µg/mL (≈ 3.13 µM) and the MIC (C. utilis 84) was 4 µg/mL (≈ 6.26 µM). For the same molecule, the “T∆trS^o” value [3] was 9.08 ± 0.22 kcal/mol, the “∆trG^o” value [3] was -4.68 ± 0.12 kcal/mol and the “∆trH^o” value [3] was 4.37 ± 0.072 kcal/mol. The “∆trS^o” value [3] was 127.4 ± 4.7 J·mol^−1·K^−1, the TΔSsolo ([4]; 1-Octanol) was -1.48 kcal/mol and the ΔGsolo ([4]; 1-Octanol) was 4.02 ± 0.048 kcal/mol. It also gave a ΔHsolo ([4]; 1-Octanol) of 2.53 ± 0.048 kcal/mol, a ΔSsolo ([4]; 1-Octanol) of −20.8 ± 1.1 J·mol^−1·K^−1 and a TΔSsolo ([4]; Buffer pH 2.0) of -3.23 kcal/mol. For the same molecule, the ΔGsolo ([4]; Buffer pH 2.0) was 6.07 ± 0.12 kcal/mol, the ΔHsolo ([4]; Buffer pH 2.0) was 2.84 ± 0.024 kcal/mol and the ΔSsolo ([4]; Buffer pH 2.0) was −45.2 ± 2.4 J·mol^−1·K^−1. The TΔSsolo ([4]; Buffer pH 7.4) was -4.54 kcal/mol, the ΔGsolo ([4]; Buffer pH 7.4) was 7.7 ± 0.14 kcal/mol and the ΔHsolo ([4]; Buffer pH 7.4) was 3.15 ± 0.024 kcal/mol. The ΔSsolo ([4]; Buffer pH 7.4) was −63.6 ± 4.1 J·mol^−1·K^−1.
